Test results taken from patent US10221163B2 (priority 2015, dated 2019).
Counter-ions that a name gives are not always drawn. Like-named read-outs stand apart in the source and are kept apart here.

What was measured:
VIM-1 = VIM-1 (Pseudomonas aeruginosa (strain ATCC 15692 / DSM 22644 / CIP 104116 / JCM 14847 / LMG 12228 / 1C / PRS 101 / PAO1), UniProt A0A0F7KYQ8); test: biochemical; settings: CCF2-FA substrate, 30 pM enzyme, 2 hours at 25° C.
Summary of the method: (§1)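 IC50 values derive from 4-parameter fits of percent inhibition against inhibitor concentration on semi-log axes. Activity was monitored by fluorescence with the CCF2-FA substrate after a 2-hour, 25° C incubation of compound, enzyme and substrate.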

[1] = tested on: Pseudomonas aeruginosa efflux− (MB9799), IMP-1; assay type: cell-based; settings: efflux− MB9799; imipenem at 2 μg/mL; in the presence of a class A, C, D serine β-lactamase inhibitor closely related to relebactam
Summary of the method: (§2)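 PAO1 pair, broth microdilution; fixed β-lactam (imipenem/ceftazidime) at ~CLSI breakpoint + fixed class A/C BLI for AmpC; serial MBLi titration; endpoint = MBLi conc. restoring susceptibility; MB9798:MB9799 ratio = efflux liability.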

NDM-1 = NDM-1 (Klebsiella pneumoniae, UniProt C7C422); test: biochemical; assay type: biochemical; settings: fluorescence assay, CCF2-FA substrate, 1 pM enzyme, 2 hours at 25° C.; read-out: NDM-1 IC50
Summary of the method: as §1

IMP-1 = IMP-1 (Serratia marcescens, UniProt P52699); test: biochemical; assay type: biochemical; settings: fluorescence assay, CCF2-FA substrate, 2 pM enzyme, 2 hours at 25° C.; read-out: IMP-1 IC50
Summary of the method: as §1

[2] = tested on: Pseudomonas aeruginosa MB9798 vs MB9799; settings: fold difference between efflux+ (MB9798) and efflux− (MB9799) strains; imipenem at 2 μg/mL
Summary of the method: as §2

[3] = tested on: Klebsiella pneumoniae expressing VIM-1 (IHMA599644); assay type: cell-based; settings: VIM-1 strain IHMA599644, with imipenem 1 μg/ml, 95% inhibition of growth
Summary of the method: (§3)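 Growth by absorbance after 22–24 h at 35°C defined the read-out, with imipenem fixed at 1 μg/ml alongside compound. Inocula came from overnight blood-agar colonies at 35°C, resuspended in saline and diluted 1:100 in 1.1×CAMHB.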

[4] = tested on: Escherichia coli expressing NDM-1 (CLB30005, CLB30016); assay type: cell-based; settings: NDM-1 strain, with imipenem 1 μg/ml, 95% inhibition of growth
Summary of the method: as §3

[5] = tested on: Serratia marcescens expressing IMP-1 (CL5741); assay type: cell-based; settings: IMP-1 strain CL5741, with imipenem 1 μg/ml, 95% inhibition of growth
Summary of the method: as §3

[6] = tested on: Pseudomonas aeruginosa efflux+ (MB9798), IMP-1; assay type: cell-based; parameters: Concentration of metallo-β-lactamase inhibitor which restores susceptibility of efflux + (MB9798) strain to imipenem: unit not given here; settings: efflux+ MB9798; imipenem at 2 μg/mL; in the presence of a class A, C, D serine β-lactamase inhibitor closely related to relebactam
Summary of the method: as §2

[7] = fluorescence assay, read-out: VIM-1 IC50

Chain of NDM-1 (C7C422 whole entry, looked up, species assumed): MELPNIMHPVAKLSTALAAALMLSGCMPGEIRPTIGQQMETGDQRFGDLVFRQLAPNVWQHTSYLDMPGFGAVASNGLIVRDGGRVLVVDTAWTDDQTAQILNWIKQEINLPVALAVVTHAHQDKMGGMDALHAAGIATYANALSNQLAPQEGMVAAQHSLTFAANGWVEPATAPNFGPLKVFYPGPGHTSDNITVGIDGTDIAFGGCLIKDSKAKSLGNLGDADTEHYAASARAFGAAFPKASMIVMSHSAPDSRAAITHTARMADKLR
Chain of IMP-1 (P52699 whole entry, looked up, species assumed): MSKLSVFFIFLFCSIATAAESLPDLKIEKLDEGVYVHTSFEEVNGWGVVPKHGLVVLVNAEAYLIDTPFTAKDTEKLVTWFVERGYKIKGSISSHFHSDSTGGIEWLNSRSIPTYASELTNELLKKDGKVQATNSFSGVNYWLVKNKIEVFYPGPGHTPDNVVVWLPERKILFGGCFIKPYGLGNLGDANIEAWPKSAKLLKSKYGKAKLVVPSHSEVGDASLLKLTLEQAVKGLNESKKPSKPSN

Compound	IC50 (VIM-1; [7])	Concentration of metallo-β-lactamase inhibitor which restores susceptibility of efflux − (MB9799) strain to imipenem [1]	IC50 (NDM-1)	IC50 (IMP-1)	Efflux ratio [2]	Klebsiella pneumoniae MITC95 [3]	Escherichia coli MITC95 [4]	Serratia marcescens MITC95 [5]	Concentration of metallo-β-lactamase inhibitor which restores susceptibility of efflux + (MB9798) strain to imipenem [6]	IC50 (VIM-1; VIM-1 IC50, fluorescence assay)
C[C@H](CN)NS(=O)(=O)c1ccc(-c2cccnc2NCCN)c(-c2nn[nH]n2)c1S(N)(=O)=O [Example 460, (R)-4-(2-((2-aminoethyl)amino)pyridin-3 yl)-N1-(1-aminopropan-2-yl)-3-(2H-tetrazol-5-yl)benzene-1,2-disulfonamide]	0.148 nM	1.563	0.603 nM	4.63 nM	2.00	1.563 µM	0.7813 µM	1.563 µM	3.125	
NCCNS(=O)(=O)c1ccc(-c2ccnc(CN)c2)c(-c2nn[nH]n2)c1S(N)(=O)=O [Example 461, N1-(2-Aminoethyl)-4-(2-(aminomethyl)pyridin-4-yl)-3-(2H-tetrazol-5-yl)benzene-1,2-disulfonamide]	4.77 nM	3.125	42.1 nM	50.4 nM	4.00	6.25 µM	1.563 µM	3.125 µM	12.5	
NCc1nc(-c2cccc(-c3ccc(S(=O)(=O)N[C@H]4CNC[C@H]4N)c(S(N)(=O)=O)c3-c3nn[nH]n3)c2)c[nH]1 [Example 462]		0.7813	0.0954 nM	1.29 nM	2.00	1.563 µM	1.563 µM	1.563 µM	1.563	0.227 nM
NCc1nc2cc(-c3ccc(S(=O)(=O)NC[C@H](O)CN)c(S(N)(=O)=O)c3-c3nn[nH]n3)ccc2s1 [Example 463, (R)—N1-(3-amino-2-hydroxypropyl)-4-(2-(aminomethyl)benzo[d]thiazol-5-yl)-3-(2H-tetrazol-5-yl)benzene-1,2-disulfonamide]	0.091 nM	0.7813	0.145 nM	0.325 nM	1.00	1.563 µM	0.7813 µM	0.7813 µM	0.7813	
NCc1nc2cc(-c3ccc(S(=O)(=O)NC[C@H](O)CN)c(S(N)(=O)=O)c3-c3nn[nH]n3)ccc2[nH]1 [Example 464, (R)—N1-(3-amino-2-hydroxypropyl)-4-(2-(aminomethyl)-1H-benzo[d]imidazole-5-yl)-3-(2H-tetrazol-5-yl)benzene-1,2-disulfonamide]	0.198 nM	0.7813	0.274 nM	1.84 nM	1.00	1.563 µM	0.7813 µM	1.563 µM	0.7813	
NCc1nc2cc(-c3ccc(S(=O)(=O)NC[C@@H](O)CN)c(S(N)(=O)=O)c3-c3nn[nH]n3)ccc2[nH]1 [Example 465]	0.133 nM	0.7813	0.223 nM	1.15 nM	1.00	1.563 µM	0.7813 µM	1.563 µM	0.7813	
NCCNS(=O)(=O)c1ccc(-c2ccc3[nH]c(CN)nc3c2)c(-c2nn[nH]n2)c1S(N)(=O)=O [Example 466, N1-(2-aminoethyl)-4-(2-(aminomethyl)-1H-benzo[d]imidazol-5-yl)-3-(2H-tetrazol-5-yl)benzene-1,2-disulfonamide]	0.138 nM	0.7813	0.359 nM	0.967 nM	1.00	1.563 µM	0.7813 µM	1.563 µM	0.7813	
Cc1cc(-c2ccc(S(=O)(=O)NC[C@@H](O)CN)c(S(N)(=O)=O)c2-c2nn[nH]n2)cnc1N [Example 468, (S)-N1-(3-amino-2-hydroxypropyl)-4-(6-amino-5-methylpyridin-3-yl)-3-(2H-tetrazol-5-yl)benzene-1,2-disulfonamide]	0.0869 nM	0.7813	0.133 nM	0.569 nM	2.00	3.125 µM	0.3906 µM	0.7813 µM	1.563	
NC[C@H](O)CNS(=O)(=O)c1ccc(-c2cnc(N)c(F)c2)c(-c2nn[nH]n2)c1S(N)(=O)=O [Example 469, (S)-N1-(3-amino-2-hydroxypropyl)-4-(6-amino-5-fluoropyridin-3-yl)-3-(2H-tetrazol-5-yl)benzene-1,2-disulfonamide]		0.7813	0.153 nM	0.554 nM	1.00	3.125 µM	1.563 µM	3.125 µM	0.7813	0.0868 nM
NS(=O)(=O)c1c(S(=O)(=O)N[C@@H]2CCNC2)ccc(-c2cccc(Nc3nc(CO)cs3)c2)c1-c1nn[nH]n1 [Example 470, (R)-3′-((4-(hydroxymethyl)thiazol-2-yl)amino)-N4-(pyrrolidin-3-yl)-2-(2H-tetrazol-5-yl)-[1,1′-biphenyl]-3,4-disulfonamide]	0.11 nM	0.7813	0.0496 nM	0.134 nM	2.00	3.125 µM	0.7813 µM	1.563 µM	1.563	
NC(=O)c1csc(Nc2cccc(-c3ccc(S(=O)(=O)N[C@@H]4CCNC4)c(S(N)(=O)=O)c3-c3nn[nH]n3)c2)n1 [Example 471, (R)-2-((4′-(N-(pyrrolidin-3-yl)sulfamoyl)-3′-sulfamoyl-2′-(2H-tetrazol-5-yl)-[1,1′-biphenyl]-3-yl)amino)thiazole-4-carboxamide]	0.0734 nM	0.7813	0.0303 nM	0.111 nM	4.00	3.125 µM	1.563 µM	1.563 µM	3.125	
NS(=O)(=O)c1c(S(=O)(=O)N[C@H]2CCNC2)ccc(-c2cccc(Nc3ncc[nH]3)c2)c1-c1nn[nH]n1 [Example 472, dihydrochloride]		0.3906	0.114 nM	0.847 nM	4.00	0.7813 µM	0.7813 µM	0.7813 µM	1.563	0.189 nM
